Experiments:
myocardial tissue = conditions: cited from earlier work
[1] = test system: amphetamine-stimulated locomotion; conditions: in vivo; cited from earlier work
prepulse inhibition = conditions: cited from earlier work
[2] = test system: A10 vs. A9 neuronal activity; conditions: after chronic administration; cited from earlier work
Male Wistar rats = assay: Chronic Mild Stress Model of Depression (CMS), sucrose intake; type: in vivo, rat; conditions: for Sucrose intake in control animals / Sucrose intake in stressed animals: five weeks; for Sucrose intake in stressed animals: treatment effect
Text: CMS uses mild stressors, such as food and water deprivation, cage tilts, changes of cage mates, etc. Over a period of weeks of exposure to the mild stressors, the animals gradually reduce their consumption of a highly preferred sucrose solution which persists (in untreated animals) for several weeks following the cessation of stress. This decreased sensitivity to reward (the sucrose solution) reflects anhedonia, a symptom of a Major Depressive Episode (see for example, Behavioral Pharmacol. 5: Suppl.1, p. 86 (1994) where lithium, carbamazepine and ketoconazole were evaluated in CMS; Psychopharmacology 93:358-364 (1987) where a tricyclic antidepressant was evaluated in CMS; Behavioral Pharmacology: 5:344-350 (1994) where a catechol-O-methyl transferase inhibitor was evaluated in CMS).
Male Wistar rats were brought into the laboratory two months before the start of the experiment at which time they weighed approximately 300 grams. Except as described below, the animals were singly housed, with food and water freely available, and maintained on a 12 hour light/dark cycle (lights on at 8AM) at a temperature of about 22° C.
The animals were first trained to consume a 1% sucrose solution; training consisted of eight 1 hour baseline tests in which sucrose was presented, in the home cage, following 14 hours food and water deprivation; intake was measured by weighing pre-weighed bottles containing the sucrose solution at the end of the test. Subsequently, sucrose consumption was monitored, under similar conditions, at weekly intervals throughout the whole experiment.
On the basis of their sucrose intakes in the final baseline test, the animals were divided into two matched groups. One group of animals was subjected to a chronic mild stress procedure for a period of 9 consecutive weeks. Each week of stress regime consisted of: two periods of food or water deprivation (12 and 14 hour), two periods of 45 degree cage tilt (12 and 14 hour+), two periods of intermittent overnight illumination (lights on and off every 2 hours), two 14 hour periods of soiled cage (200 ml water in sawdust bedding), two 14 hour periods of paired housing, two 14 hour periods of low intensity stroboscopic illumination (150 flashes/min). Stressors were applied continuously throughout the day and night, and scheduled randomly. Control animals were housed in a separate room and had no contract with the stressed animals. They were deprived of food and water for the 14 hours preceding each sucrose test, but otherwise food and water were freely available in the home cage. On the basis of their sucrose intake scores following 3 weeks of stress, both stressed and control animals were each divided further into matched subgroups (n=8), and for subsequent five weeks they received daily administrations of vehicle (1 ml/kg, intraperitoneally (ip)) imipramine (10 mg/kg, ip) or MDL 100,907 (0.002, 0.02 and 0.2 mg/kg orally). All drug injections were in a volume of 1 ml/kg body weight. Drugs were administered at 10AM and sucrose tests were carried out 24 hours following the last drug treatment. After five weeks, the treatments were terminated and after one week of withdrawal a final sucrose test was carried out. Stress was continued throughout the period of treatment and withdrawal.
Results were analyzed by multiple analysis of variance, followed by Fisher's LSD test for post hoc comparisons of means.

[3] = 0.002, 0.02 and 0.2 mg/kg orally daily

Compound	Duration of the action potential of myocardial tissue (myocardial tissue)	Amphetamine-stimulated locomotion [1]	Disrupted PPI (prepulse inhibition) (prepulse inhibition; disruption produced by 5HT agonists in Wistar rats)	5-HT2 agonist-induced deficits in prepulse inhibition and latent inhibition (prepulse inhibition; rat, in vivo)	Effects on A10 vs. A9 neuronal activity [2]	Sucrose intake in stressed animals throughout the whole treatment period (Male Wistar rats; 0.002 mg/kg orally)	Sucrose solution drunk by stressed animals at end of treatment (Week 5) (Male Wistar rats; 0.02 mg/kg orally)	Sucrose intake in stressed animals vs initial scores (Week 0) (Male Wistar rats; 0.02 mg/kg orally, after two weeks of treatment)	Sucrose solution drunk by stressed animals at end of treatment (Week 5) (Male Wistar rats; 0.2 mg/kg orally)	Sucrose intake in stressed animals vs initial scores (Week 0) (Male Wistar rats; 0.2 mg/kg orally, after three weeks of treatment)	Sucrose intake in control animals one week after withdrawal (Male Wistar rats; 0.002, 0.02, 0.2 mg/kg orally)	Sucrose intake in stressed animals one week after withdrawal (Male Wistar rats; 0.002, 0.02, 0.2 mg/kg orally)	Sucrose intake in control animals (Male Wistar rats; [3])	Sucrose intake in stressed animals (Male Wistar rats; [3])	Sucrose intake in control animals (Male Wistar rats; 10 mg/kg, ip daily)	Sucrose intake in stressed animals (Male Wistar rats; 10 mg/kg, ip daily)	Sucrose intake of drug-treated stressed animals vs drug- and saline-treated controls (Male Wistar rats; 10 mg/kg, ip, after five weeks of treatment)	Sucrose intake in stressed animals vs Week 0 scores (Male Wistar rats; 10 mg/kg, ip, after four weeks of treatment)	Increase of sucrose intake in stressed animals after withdrawal (Male Wistar rats; 10 mg/kg, ip, one week after withdrawal)
COc1cccc(C(O)C2CCN(CCc3ccc(F)cc3)CC2)c1OC (stereo not drawn) [MDL 100,907, (+)-α-(2,3-dimethoxyphenyl)-1-[2-(4-fluorophenyl)ethyl]-4-piperidinemethanol]	increases	blockade	restore disrupted PPI	reversal	selective effects	no significant effect	comparable to that of vehicle-treated controls	significantly increased	comparable to that of vehicle-treated controls	significantly increased	not significantly changed	not significantly changed	no significant effect	gradually reversed the CMS-induced deficit in sucrose intake					
CN(C)CCCN1c2ccccc2CCc2ccccc21 [Imipramine, reference compound]															no significant effect	gradual increase of sucrose intake	no significant differences	significantly increased	maintained at similar level

From patent publication US6455526B1, “Biodegradable polymer encapsulated pharmaceutical compositions and method for preparing the same” (Aventis Pharmaceuticals, Inc., priority 1998, dated 2002)
